Active and inactive are the calls of the source. The calls are words filed in the database; no cut-off is given here.
Tests used:
[1] = molecular target: T1, Casein kinase II subunit alpha (Homo sapiens, UniProt P68400); experiment: Displacement of ARC-1504/ARC-1513-5O from CK2alpha (unknown origin) (1 to 335 residues) after 15 to 60 mins by luminescence assay
[2] = molecular target: Mitogen-activated protein kinase 8 (Homo sapiens) (UniProt P45983); experiment: Inhibition of human JNK1 assessed as enzyme residual activity at 100 nM by radiometric filter binding assay relative to control
[3] = molecular target: Dual specificity tyrosine-phosphorylation-regulated kinase 1A (Homo sapiens) (UniProt Q13627); experiment: Inhibition of human DYRK1alpha assessed as enzyme residual activity at 100 nM by radiometric filter binding assay relative to control
[4] = molecular target: Homeodomain-interacting protein kinase 2 (Homo sapiens) (UniProt Q9H2X6); experiment: Inhibition of human HIPK2 assessed as enzyme residual activity at 100 nM by radiometric filter binding assay relative to control
[5] = molecular target: Mitogen-activated protein kinase kinase kinase 11 (Homo sapiens) (UniProt Q16584); experiment: Inhibition of human MLK3 assessed as enzyme residual activity at 100 nM by radiometric filter binding assay relative to control
[6] = molecular target: Serine/threonine-protein kinase pim-1 (Homo sapiens) (UniProt P11309); experiment: Inhibition of human PIM1 assessed as enzyme residual activity at 100 nM by radiometric filter binding assay relative to control
[7] = molecular target: Proto-oncogene tyrosine-protein kinase Src (Homo sapiens) (UniProt P12931); experiment: Inhibition of human SRC assessed as enzyme residual activity at 100 nM by radiometric filter binding assay relative to control
[8] = molecular target: T1, Casein kinase II subunit alpha; experiment: Inhibition of human CK2alpha assessed as enzyme residual activity at 100 nM by radiometric filter binding assay relative to control
Target sequence in this assay (P68400 whole entry, looked up, the tested form may be a part): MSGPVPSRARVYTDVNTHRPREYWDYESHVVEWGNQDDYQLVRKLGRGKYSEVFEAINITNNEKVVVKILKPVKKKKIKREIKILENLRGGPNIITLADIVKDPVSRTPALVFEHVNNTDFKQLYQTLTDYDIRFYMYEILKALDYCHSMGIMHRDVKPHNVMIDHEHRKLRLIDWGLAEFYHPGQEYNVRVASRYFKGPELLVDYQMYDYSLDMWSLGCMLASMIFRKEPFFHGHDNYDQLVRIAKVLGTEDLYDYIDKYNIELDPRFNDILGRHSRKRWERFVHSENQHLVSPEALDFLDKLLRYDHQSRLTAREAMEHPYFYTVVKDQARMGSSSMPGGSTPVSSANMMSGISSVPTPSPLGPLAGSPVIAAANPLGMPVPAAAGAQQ

[9] = molecular target: Eukaryotic elongation factor 2 kinase (Homo sapiens) (UniProt O00418); experiment: Inhibition of human EF2K assessed as enzyme residual activity at 100 nM by radiometric filter binding assay relative to control
[10] = molecular target: Calcium/calmodulin-dependent protein kinase kinase 2 (Homo sapiens) (UniProt Q96RR4); experiment: Inhibition of human CaMKKbeta assessed as enzyme residual activity at 100 nM by radiometric filter binding assay relative to control
[11] = molecular target: Ribosomal protein S6 kinase alpha-1 (Homo sapiens) (UniProt Q15418); experiment: Inhibition of human RSK1 assessed as enzyme residual activity at 100 nM by radiometric filter binding assay relative to control
[12] = molecular target: Insulin-like growth factor 1 receptor (Homo sapiens) (UniProt P08069); experiment: Inhibition of human IGF1R assessed as enzyme residual activity at 100 nM by radiometric filter binding assay relative to control
[13] = molecular target: Tyrosine-protein kinase JAK3 (Homo sapiens) (UniProt P52333); experiment: Inhibition of human JAK3 assessed as enzyme residual activity at 100 nM by radiometric filter binding assay relative to control
[14] = molecular target: Aurora kinase B (Homo sapiens) (UniProt Q96GD4); experiment: Inhibition of human AurB assessed as enzyme residual activity at 100 nM by radiometric filter binding assay relative to control
[15] = molecular target: Calcium/calmodulin-dependent protein kinase type 1 (Homo sapiens) (UniProt Q14012); experiment: Inhibition of human CaMK1alpha assessed as enzyme residual activity at 100 nM by radiometric filter binding assay relative to control
[16] = molecular target: Serine/threonine-protein kinase PLK1 (Homo sapiens) (UniProt P53350); experiment: Inhibition of human PLK1 assessed as enzyme residual activity at 100 nM by radiometric filter binding assay relative to control
[17] = molecular target: T1, Casein kinase II subunit alpha; experiment: Displacement of ARC-1504/ARC-1513-5O from CK2alpha (unknown origin) (1 to 335 residues) assessed as photoluminescence lifetime using non-deoxygenated solution after 15 to 60 mins by luminescence assay
Target sequence in this assay (P68400 whole entry, looked up, the tested form may be a part): as above

[18] = molecular target: Protein kinase C alpha type (Homo sapiens) (UniProt P17252); experiment: Inhibition of human PKCalpha assessed as enzyme residual activity at 100 nM by radiometric filter binding assay relative to control
[19] = molecular target: Tyrosine-protein kinase SYK (Homo sapiens) (UniProt P43405); experiment: Inhibition of human SYK assessed as enzyme residual activity at 100 nM by radiometric filter binding assay relative to control
[20] = molecular target: Tyrosine-protein kinase BTK (Homo sapiens) (UniProt Q06187); experiment: Inhibition of human BTK assessed as enzyme residual activity at 100 nM by radiometric filter binding assay relative to control
[21] = molecular target: High affinity nerve growth factor receptor (Homo sapiens) (UniProt P04629); experiment: Inhibition of human TRKA assessed as enzyme residual activity at 100 nM by radiometric filter binding assay relative to control
[22] = molecular target: Receptor tyrosine-protein kinase erbB-4 (Homo sapiens) (UniProt Q15303); experiment: Inhibition of human HER4 assessed as enzyme residual activity at 100 nM by radiometric filter binding assay relative to control
[23] = molecular target: Glycogen synthase kinase-3 beta (Homo sapiens) (UniProt P49841); experiment: Inhibition of human GSK3beta assessed as enzyme residual activity at 100 nM by radiometric filter binding assay relative to control
[24] = molecular target: SRSF protein kinase 1 (Homo sapiens) (UniProt Q96SB4); experiment: Inhibition of human SRPK1 assessed as enzyme residual activity at 100 nM by radiometric filter binding assay relative to control
[25] = organism: Homo sapiens; experiment: Inhibition of human PKA assessed as enzyme residual activity at 100 nM by radiometric filter binding assay relative to control
[26] = molecular target: T1, Casein kinase II subunit alpha; experiment: Displacement of 5-TAMRA-labeled ARC-1530 from CK2alpha (unknown origin) (1 to 335 residues) after 15 to 60 mins by luminescence assay
Target sequence in this assay (P68400 whole entry, looked up, the tested form may be a part): as above

[27] = molecular target: Serine/threonine-protein kinase Chk2 (Homo sapiens) (UniProt O96017); experiment: Inhibition of human CHK2 assessed as enzyme residual activity at 100 nM by radiometric filter binding assay relative to control
[28] = molecular target: Dual specificity protein kinase TTK (Homo sapiens) (UniProt P33981); experiment: Inhibition of human TTK assessed as enzyme residual activity at 100 nM by radiometric filter binding assay relative to control
[29] = molecular target: Dual specificity mitogen-activated protein kinase kinase 1 (Homo sapiens) (UniProt Q02750); experiment: Inhibition of human MKK1 assessed as enzyme residual activity at 100 nM by radiometric filter binding assay relative to control
[30] = molecular target: Serine/threonine-protein kinase PAK 4 (Homo sapiens) (UniProt O96013); experiment: Inhibition of human PAK4 assessed as enzyme residual activity at 100 nM by radiometric filter binding assay relative to control
[31] = molecular target: 3-phosphoinositide-dependent protein kinase 1 (Homo sapiens) (UniProt O15530); experiment: Inhibition of human PDK1 assessed as enzyme residual activity at 100 nM by radiometric filter binding assay relative to control
[32] = molecular target: Myosin light chain kinase, smooth muscle (Homo sapiens) (UniProt Q15746); experiment: Inhibition of human SmMLCK assessed as enzyme residual activity at 100 nM by radiometric filter binding assay relative to control
[33] = molecular target: Vascular endothelial growth factor receptor 1 (Homo sapiens) (UniProt P17948); experiment: Inhibition of human VEGFR1 assessed as enzyme residual activity at 100 nM by radiometric filter binding assay relative to control

Sequence of Glycogen synthase kinase-3 beta (Homo sapiens) (P49841 whole entry, looked up): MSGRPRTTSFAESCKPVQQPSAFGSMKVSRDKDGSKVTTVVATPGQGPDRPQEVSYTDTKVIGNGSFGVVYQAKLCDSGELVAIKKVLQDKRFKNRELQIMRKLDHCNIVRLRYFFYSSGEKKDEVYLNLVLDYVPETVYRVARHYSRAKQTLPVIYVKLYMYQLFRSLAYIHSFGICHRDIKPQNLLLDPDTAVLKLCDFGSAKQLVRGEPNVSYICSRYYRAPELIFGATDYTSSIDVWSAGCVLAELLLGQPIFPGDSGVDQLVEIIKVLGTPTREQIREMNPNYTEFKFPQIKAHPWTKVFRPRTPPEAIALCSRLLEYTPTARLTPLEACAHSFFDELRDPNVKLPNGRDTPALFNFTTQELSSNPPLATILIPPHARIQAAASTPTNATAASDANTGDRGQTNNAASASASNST
Sequence of SRSF protein kinase 1 (Homo sapiens) (Q96SB4 whole entry): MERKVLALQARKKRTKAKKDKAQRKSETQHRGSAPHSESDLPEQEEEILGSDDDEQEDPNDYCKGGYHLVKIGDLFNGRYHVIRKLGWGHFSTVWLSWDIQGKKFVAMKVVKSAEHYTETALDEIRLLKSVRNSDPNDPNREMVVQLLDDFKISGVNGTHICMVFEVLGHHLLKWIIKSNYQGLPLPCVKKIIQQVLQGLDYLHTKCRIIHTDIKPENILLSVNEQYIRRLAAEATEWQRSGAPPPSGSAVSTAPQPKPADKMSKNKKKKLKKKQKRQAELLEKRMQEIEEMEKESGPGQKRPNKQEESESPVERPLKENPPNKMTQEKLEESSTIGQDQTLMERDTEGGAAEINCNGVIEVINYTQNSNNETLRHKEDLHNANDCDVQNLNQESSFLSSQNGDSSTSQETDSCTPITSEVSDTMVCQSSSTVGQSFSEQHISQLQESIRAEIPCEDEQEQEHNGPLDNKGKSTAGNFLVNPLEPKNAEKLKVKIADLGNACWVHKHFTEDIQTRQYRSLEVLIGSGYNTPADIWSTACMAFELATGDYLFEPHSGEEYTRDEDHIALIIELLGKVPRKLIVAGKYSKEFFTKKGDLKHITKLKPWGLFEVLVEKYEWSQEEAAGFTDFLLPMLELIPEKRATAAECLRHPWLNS
Sequence of 3-phosphoinositide-dependent protein kinase 1 (Homo sapiens) (O15530 whole entry): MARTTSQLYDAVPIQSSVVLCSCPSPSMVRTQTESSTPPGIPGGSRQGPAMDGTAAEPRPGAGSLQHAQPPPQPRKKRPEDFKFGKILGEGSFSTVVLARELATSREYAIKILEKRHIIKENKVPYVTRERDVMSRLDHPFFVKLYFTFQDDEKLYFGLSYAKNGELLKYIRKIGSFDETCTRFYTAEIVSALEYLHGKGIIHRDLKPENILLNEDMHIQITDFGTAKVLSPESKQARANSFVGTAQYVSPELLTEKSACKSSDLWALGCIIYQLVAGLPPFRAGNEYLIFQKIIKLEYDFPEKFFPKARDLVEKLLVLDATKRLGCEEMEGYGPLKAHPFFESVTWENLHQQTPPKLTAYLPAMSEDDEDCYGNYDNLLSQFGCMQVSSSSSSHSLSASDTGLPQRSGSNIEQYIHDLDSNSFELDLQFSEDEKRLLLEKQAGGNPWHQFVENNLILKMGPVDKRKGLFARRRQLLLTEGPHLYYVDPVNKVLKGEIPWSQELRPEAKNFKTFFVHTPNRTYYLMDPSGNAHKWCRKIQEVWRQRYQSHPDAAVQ
Sequence of Ribosomal protein S6 kinase alpha-1 (Homo sapiens) (Q15418 whole entry): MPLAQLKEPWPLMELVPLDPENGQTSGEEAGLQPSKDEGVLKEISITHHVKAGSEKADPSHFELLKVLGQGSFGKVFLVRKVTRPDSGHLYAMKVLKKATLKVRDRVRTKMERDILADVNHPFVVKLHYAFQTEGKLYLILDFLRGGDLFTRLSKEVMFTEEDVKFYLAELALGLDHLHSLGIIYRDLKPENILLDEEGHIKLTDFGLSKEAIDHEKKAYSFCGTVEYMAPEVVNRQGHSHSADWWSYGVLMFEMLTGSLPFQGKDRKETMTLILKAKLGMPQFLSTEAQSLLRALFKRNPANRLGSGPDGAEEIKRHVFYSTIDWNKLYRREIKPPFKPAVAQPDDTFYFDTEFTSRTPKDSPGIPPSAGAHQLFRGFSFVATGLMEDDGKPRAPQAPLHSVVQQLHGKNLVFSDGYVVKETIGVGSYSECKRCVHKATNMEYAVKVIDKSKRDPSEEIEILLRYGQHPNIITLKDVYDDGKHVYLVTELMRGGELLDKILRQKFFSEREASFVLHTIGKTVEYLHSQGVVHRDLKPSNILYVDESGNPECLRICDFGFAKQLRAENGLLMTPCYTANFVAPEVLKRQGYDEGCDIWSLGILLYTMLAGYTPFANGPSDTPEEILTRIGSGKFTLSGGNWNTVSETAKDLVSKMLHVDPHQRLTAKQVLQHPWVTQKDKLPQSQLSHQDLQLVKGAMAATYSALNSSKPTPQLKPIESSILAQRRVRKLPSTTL
Sequence of Insulin-like growth factor 1 receptor (Homo sapiens) (P08069 31-736 limits assumed): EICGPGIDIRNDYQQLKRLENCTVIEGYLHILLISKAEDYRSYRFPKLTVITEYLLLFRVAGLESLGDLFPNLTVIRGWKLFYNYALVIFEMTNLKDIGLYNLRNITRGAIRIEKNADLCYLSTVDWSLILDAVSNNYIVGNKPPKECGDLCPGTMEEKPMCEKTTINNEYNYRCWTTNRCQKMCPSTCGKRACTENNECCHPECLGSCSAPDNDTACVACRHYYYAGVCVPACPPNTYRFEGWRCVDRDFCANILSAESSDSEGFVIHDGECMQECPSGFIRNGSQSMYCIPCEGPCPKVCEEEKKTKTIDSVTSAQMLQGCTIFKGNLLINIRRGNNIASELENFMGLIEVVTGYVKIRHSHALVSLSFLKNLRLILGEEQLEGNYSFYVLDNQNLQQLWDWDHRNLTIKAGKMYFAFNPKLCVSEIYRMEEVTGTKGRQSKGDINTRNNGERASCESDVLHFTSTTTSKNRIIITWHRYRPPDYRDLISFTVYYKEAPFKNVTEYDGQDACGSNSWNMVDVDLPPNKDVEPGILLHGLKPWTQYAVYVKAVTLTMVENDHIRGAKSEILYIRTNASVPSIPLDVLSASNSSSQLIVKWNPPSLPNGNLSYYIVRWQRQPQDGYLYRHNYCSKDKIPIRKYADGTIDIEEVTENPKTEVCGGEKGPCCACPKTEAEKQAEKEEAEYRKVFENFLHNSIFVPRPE
Sequence of Insulin-like growth factor 1 receptor (Homo sapiens) (P08069 741-1367 limits assumed): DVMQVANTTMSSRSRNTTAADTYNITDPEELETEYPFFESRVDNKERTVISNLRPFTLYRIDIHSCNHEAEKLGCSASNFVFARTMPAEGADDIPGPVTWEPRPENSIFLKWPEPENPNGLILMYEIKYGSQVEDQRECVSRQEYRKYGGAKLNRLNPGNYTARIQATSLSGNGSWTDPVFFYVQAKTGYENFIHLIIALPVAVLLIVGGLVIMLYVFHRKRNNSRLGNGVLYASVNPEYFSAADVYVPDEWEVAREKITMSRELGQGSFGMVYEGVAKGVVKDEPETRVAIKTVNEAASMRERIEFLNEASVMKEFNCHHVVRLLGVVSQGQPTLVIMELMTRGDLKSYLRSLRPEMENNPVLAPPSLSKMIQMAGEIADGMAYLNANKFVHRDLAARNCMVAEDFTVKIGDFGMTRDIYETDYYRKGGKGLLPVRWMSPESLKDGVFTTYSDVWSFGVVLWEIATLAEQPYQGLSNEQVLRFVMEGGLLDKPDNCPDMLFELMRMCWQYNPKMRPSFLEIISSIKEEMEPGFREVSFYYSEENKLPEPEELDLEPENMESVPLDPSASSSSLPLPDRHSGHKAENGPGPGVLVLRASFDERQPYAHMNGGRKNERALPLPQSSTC
Sequence of Serine/threonine-protein kinase PLK1 (Homo sapiens) (P53350 whole entry, the tested form may be a part): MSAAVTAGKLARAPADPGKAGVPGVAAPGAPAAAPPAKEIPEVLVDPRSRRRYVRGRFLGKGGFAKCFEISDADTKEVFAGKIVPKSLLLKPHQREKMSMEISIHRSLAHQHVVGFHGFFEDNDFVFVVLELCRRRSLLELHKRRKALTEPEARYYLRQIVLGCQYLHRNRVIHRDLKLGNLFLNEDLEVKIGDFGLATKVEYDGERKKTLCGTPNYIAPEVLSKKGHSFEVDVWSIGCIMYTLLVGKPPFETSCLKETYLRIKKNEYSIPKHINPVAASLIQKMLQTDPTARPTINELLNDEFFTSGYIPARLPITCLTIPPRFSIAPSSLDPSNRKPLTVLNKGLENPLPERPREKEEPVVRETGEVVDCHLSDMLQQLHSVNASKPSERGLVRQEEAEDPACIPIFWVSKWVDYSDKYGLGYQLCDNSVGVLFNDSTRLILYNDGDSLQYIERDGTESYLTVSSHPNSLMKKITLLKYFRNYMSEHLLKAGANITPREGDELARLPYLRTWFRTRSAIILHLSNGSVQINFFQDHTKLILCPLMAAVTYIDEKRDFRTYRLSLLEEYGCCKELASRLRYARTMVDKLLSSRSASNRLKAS

NCCCC[C@@H](NC(=O)[C@@H](CC(=O)O)NC(=O)[C@@H](CC(=O)O)NC(=O)[C@@H](CC(=O)O)NC(=O)[C@@H](CC(=O)O)NC(=O)[C@@H](CC(=O)O)NC(=O)[C@@H](CC(=O)O)NC(=O)CCCCCNC(=O)CCC(=O)Nc1ncc(-c2ccc(C(=O)O)cc2)s1)C(=O)O
Kd [1]: 0.58 nM | Activity [2]: 86% | Activity [3]: 11.5% | Activity [4]: 23% | Activity [5]: 69% | Activity [6]: 91% | Activity [7]: 103% | Activity [8]: 1.9% | Activity [9]: 106% | Activity [10]: 120% | Activity [11]: 101% | Activity [12]: 143% | Activity [13]: 85% | Activity [14]: 129% | Activity [15]: 111% | Activity [16]: 83% | Time [17]: 82 microsec | Activity [18]: 95% | Activity [19]: 122% | Activity [20]: 99% | Activity [21]: 88% | Activity [22]: 113% | Activity [23]: 19% | Activity [24]: 69% | Activity [25]: 92% | Activity [26]: Active | Activity [27]: 96% | Activity [28]: 85% | Activity [29]: 88% | Activity [30]: 101% | Activity [31]: 111% | Activity [32]: 68% | Activity [33]: 87%
